Test results from ChEMBL document CHEMBL1201862, “PubChem BioAssay data set” (2004).
“And” between values parts separate entries of the source, which are not always exact repeats. Equal values may be shown once.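 96-well plates; 48 h exposure; 5 concentrations. Endpoints by linear interpolation between flanking doses. Not reached: highest tested concentration assigned. GI50: concentration for 50% inhibition of growth.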 The source made the active and inactive calls. Rule as the data show it: active = GI50 up to about 1.1 µM and inactive = higher.

Columns and labels:
Test in all cases: NCI-60 cell line screen, 48 h
NCI/ADR-RES = tested on: NCI/ADR-RES
NCI-H460 = tested on: NCI-H460
OVCAR-8 = tested on: OVCAR-8
OVCAR-5 = tested on: OVCAR-5
RXF 393 = tested on: RXF 393
SN12C = tested on: SN12C
EKVX = tested on: EKVX
MDA-MB-435 = tested on: MDA-MB-435
HCT-116 = tested on: HCT-116
MDA-MB-231 = tested on: MDA-MB-231
TK-10 = tested on: TK-10
NCI-H23 = tested on: NCI-H23
SNB-19 = tested on: SNB-19
HCC 2998 = tested on: HCC 2998
HCT-15 = tested on: HCT-15
M14 = tested on: M14
PC-3 = tested on: PC-3
U-251 = tested on: U-251
HOP-92 = tested on: HOP-92

Structure (SMILES)	GI50 (NCI/ADR-RES)	GI50 (NCI-H460)	GI50 (OVCAR-8)	GI50 (OVCAR-5)	GI50 (RXF 393)	GI50 (SN12C)	GI50 (EKVX)	GI50 (MDA-MB-435)	GI50 (HCT-116)	GI50 (MDA-MB-231)	GI50 (TK-10)	GI50 (NCI-H23)	GI50 (SNB-19)	GI50 (HCC 2998)	GI50 (HCT-15)	GI50 (M14)	GI50 (PC-3)	GI50 (U-251)	GI50 (HOP-92)
CCOC(=O)NN(C(=O)OCC)c1c(C)cc(C)cc1C	> 100 µM (inactive)	> 100 µM (inactive)	> 100 µM (inactive)	> 100 µM (inactive)	21 µM (inactive)	> 100 µM (inactive)	> 100 µM (inactive)	> 100 µM (inactive)	> 100 µM (inactive)	> 100 µM (inactive)	> 100 µM (inactive)	> 100 µM (inactive)	> 100 µM (inactive)	> 100 µM (inactive)	> 100 µM	> 100 µM (inactive)	> 100 µM (inactive)	> 100 µM (inactive)	
c1ccc([B-]2(c3ccccc3)OCCc3cccc[n+]32)cc1	59 µM (inactive)	60.3 µM (inactive)	75 µM (inactive)	> 100 µM (inactive)	33.3 µM (inactive)	59.3 µM (inactive)	91.8 µM (inactive)	33.3 µM (inactive)	35 µM (inactive)	84.5 µM (inactive)	54.3 µM (inactive)	48.8 µM (inactive)	> 100 µM (inactive)		44.5 µM	36.2 µM (inactive)	18.5 µM (inactive)	> 100 µM (inactive)	28.2 µM (inactive)
O=S1(=O)OCCOS(=O)(=O)C1S(=O)(=O)c1ccc2ccccc2c1	> 100 µM (inactive)	> 100 µM (inactive)	> 100 µM (inactive)	> 100 µM (inactive)		> 100 µM (inactive)	> 100 µM (inactive)	> 100 µM (inactive)	> 100 µM (inactive)	> 100 µM (inactive)	> 100 µM (inactive)	> 100 µM (inactive)	> 100 µM (inactive)	> 100 µM (inactive)	> 100 µM	> 100 µM (inactive)	> 100 µM (inactive)	> 100 µM (inactive)	> 100 µM (inactive)
COc1cccc(-c2ccc3c4c2O[C@H]2C(=O)CC[C@@]5(O)[C@@H](C3)N(CC3CC3)CC[C@]425)c1	19.4 µM (inactive)	28.9 µM (inactive)	18.5 µM (inactive)	17.9 µM (inactive)	8.53 µM (inactive)	18.5 µM (inactive)	17.1 µM (inactive)	12.9 µM (inactive)	17.5 µM (inactive)	15.8 µM (inactive)	17.3 µM (inactive)	24.9 µM (inactive)	20.7 µM (inactive)		13.6 µM	14.5 µM (inactive)	13.4 µM (inactive)	16.2 µM (inactive)	15.3 µM (inactive)
O=NNc1cnc(O)nc1O	> 100 µM (inactive)		> 100 µM (inactive)		> 100 µM (inactive)	> 100 µM (inactive)	> 100 µM (inactive)	> 100 µM (inactive)	> 100 µM (inactive)	> 100 µM (inactive)	> 100 µM (inactive)	> 100 µM (inactive)	> 100 µM (inactive)	> 100 µM (inactive)	> 100 µM	> 100 µM (inactive)	> 100 µM (inactive)	> 100 µM (inactive)	> 100 µM (inactive)
CCOP(=O)(OCC)C(c1ccccc1)N(C(=O)NC(F)(F)F)c1cccc(F)c1 (configuration not stated)	58.9 µM (inactive)	> 100 µM (inactive)	> 100 µM (inactive)	> 10 µM (inactive)	64.7 µM (inactive)	> 100 µM (inactive)	94.8 µM (inactive)	> 100 µM (inactive)	> 100 µM (inactive)	> 100 µM (inactive)	> 100 µM (inactive)	> 100 µM (inactive)	> 100 µM (inactive)	55.8 µM (inactive)	81.5 µM	> 100 µM (inactive)	45.8 µM (inactive)	> 100 µM (inactive)	
Cc1cn(C2CC(N(O)C(N)=O)C(CO)O2)c(=O)[nH]c1=O (configuration not stated)	> 100 µM (inactive)		> 100 µM (inactive)	> 100 µM (inactive)	> 100 µM (inactive)	> 100 µM (inactive)		> 100 µM (inactive)	> 100 µM (inactive)	> 100 µM (inactive)	> 100 µM (inactive)	> 100 µM (inactive)	> 100 µM (inactive)		> 100 µM	> 100 µM (inactive)	> 100 µM (inactive)	> 100 µM (inactive)	> 100 µM (inactive)
COc1c(OC/C=C(\C)CCC=C(C)C)ccc2ccc(=O)oc12 [COLLININ]	95.9 µM (inactive)	> 10 µM (inactive)	> 100 µM (inactive)	> 100 µM (inactive)		> 100 µM (inactive)	83.9 µM (inactive)	> 100 µM (inactive)	> 100 µM (inactive)	> 100 µM (inactive)	> 100 µM (inactive)	> 100 µM (inactive)	65.2 µM (inactive)	> 100 µM (inactive)	64.9 µM	> 100 µM (inactive)	24.2 µM (inactive)	> 100 µM (inactive)	77.4 µM (inactive)
CC(=O)OCC(OC(C)=O)C(OC(C)=O)C(/C=N\Nc1nc2ccccc2c(=O)[nH]1)OC(C)=O (configuration not stated)	24.9 µM (inactive) and 34.5 µM (inactive)	> 100 µM (inactive)	> 100 µM (inactive)	> 100 µM (inactive)		> 100 µM (inactive)	> 100 µM (inactive)	> 100 µM (inactive)	> 100 µM (inactive)	> 100 µM (inactive)	> 100 µM (inactive)	> 100 µM (inactive)	> 100 µM (inactive)		> 100 µM	> 100 µM (inactive)	> 100 µM (inactive)	> 100 µM (inactive)	> 100 µM (inactive)
CCCCCCCCCCCCC(=O)NCC(=O)NC(Cc1ccccc1)C(=O)Oc1ccc([N+](=O)[O-])cc1 (configuration not stated)	57.1 µM (inactive)	> 100 µM (inactive)	48.2 µM (inactive)	> 100 µM (inactive)	91.4 µM (inactive)	70.1 µM (inactive)	70.6 µM (inactive)	65.8 µM (inactive)	30.9 µM (inactive)	48.4 µM (inactive)	> 100 µM (inactive)	57.7 µM (inactive)	15.2 µM (inactive)	44.4 µM (inactive)	38.1 µM	49.1 µM (inactive)	> 100 µM (inactive)		
C[N+](C)([O-])CCC=C1c2ccccc2CCc2ccccc21	22 µM (inactive)	31.3 µM (inactive)	23.4 µM (inactive)	33.3 µM (inactive)	20.5 µM (inactive)	24.2 µM (inactive)	24.8 µM (inactive)	15.7 µM (inactive)	29.6 µM (inactive)	30.7 µM (inactive)	53.2 µM (inactive)	34.1 µM (inactive)	35.6 µM (inactive)		27.7 µM	31 µM (inactive)	24.7 µM (inactive)	18.2 µM (inactive)	25.5 µM (inactive)
CC(C)(C)CNCCCNc1ccc(Cl)cc1	> 100 µM (inactive)	37.2 µM (inactive)	> 100 µM (inactive)	51.8 µM (inactive)	15.7 µM (inactive)	28.7 µM (inactive)	48.6 µM (inactive)	30.1 µM (inactive)	55.1 µM (inactive)	23.2 µM (inactive)	19.7 µM (inactive)	> 100 µM (inactive)	> 100 µM (inactive)		93.1 µM	23 µM (inactive)	51.3 µM (inactive)	> 100 µM (inactive)	13.6 µM (inactive)
NNC(=O)c1ccccc1Nc1nc(-c2cccs2)nc2ccc(Br)cc12	> 100 µM (inactive)	87.3 µM (inactive)	55 µM (inactive)	> 100 µM (inactive)		37.2 µM (inactive)	> 100 µM (inactive)	77.4 µM (inactive)	70 µM (inactive)	> 100 µM (inactive)	> 100 µM (inactive)	> 100 µM (inactive)	53.3 µM (inactive)	90.4 µM (inactive)	14.7 µM	86.7 µM (inactive)	44.4 µM (inactive)	23.2 µM (inactive)	> 100 µM (inactive)
O=S(=O)(/N=c1\[nH]c(-c2cc(O)c(O)c(O)c2)cs1)c1ccc(Cl)cc1Cl	26.4 µM (inactive)	18.7 µM (inactive)	0.034 µM (active)	18.2 µM (inactive)	25.5 µM (inactive)	18.7 µM (inactive)	18.1 µM (inactive)	22.2 µM (inactive)	19 µM (inactive)	21.3 µM (inactive)	4.65 µM (inactive)	26.5 µM (inactive)	31 µM (inactive)		17.2 µM	22.1 µM (inactive)	34.5 µM (inactive)	19 µM (inactive)	41.2 µM (inactive)
COc1cc(OC2OC(CO)C(O)C(O)C2O)c2c(c1)O[C@@H]1[C@H](O)Oc3cc(OC)c(OC)cc3[C@]1(O)C2=O (some centres not stated)	> 25 µM (inactive)	> 25 µM (inactive)	> 25 µM (inactive)	> 25 µM (inactive)		> 25 µM (inactive)	> 25 µM (inactive)	> 25 µM (inactive)	> 25 µM (inactive)	> 25 µM (inactive)	> 25 µM (inactive)	> 25 µM (inactive)	> 25 µM (inactive)	> 25 µM (inactive)	> 25 µM	> 25 µM (inactive)	> 25 µM (inactive)	> 25 µM (inactive)	> 25 µM (inactive)
CCOC(=O)C1(N)CCc2[nH][nH]c(=O)c2C1 (configuration not stated)	> 100 µM (inactive)	> 100 µM (inactive)	> 100 µM (inactive)	> 100 µM (inactive)			> 100 µM (inactive)	> 100 µM (inactive)	> 100 µM (inactive)	> 100 µM (inactive)	> 100 µM (inactive)	> 100 µM (inactive)	> 100 µM (inactive)	> 100 µM (inactive)	> 100 µM	> 100 µM (inactive)	> 100 µM (inactive)	> 100 µM (inactive)	> 100 µM (inactive)
